Data: PubChem BioAssay AID1549 (Sanford-Burnham Center for Chemical Genomics, 2009)
Calls of active or inactive are those of the source. The rule behind the calls is not given here.

The molecules below were run against Influenza A virus M2 proton channel (A/TW/4845/1999 H1N1) (assay: NMR binding screen, influenza A virus M2 proton channel, Kd (AID 1549)). Details: M2 protein.
For `Cn1cnc([N+](=O)[O-])c1Sc1ncnc2nc[nH]c12`, the Kd was > 4 mM (inactive).
With `CC1=C2[C@H]3OC(=O)[C@@H](C)[C@@H]3CC[C@@]2(C)C=CC1=O` the Kd was > 4 mM (inactive).
`Cc1ccccc1OCC(=O)O` was tested, and the Kd was > 4 mM (inactive).
`COc1ccc(C2(C)NC(=O)NC2=O)cc1` (stereo not given) was tested, and the Kd was > 4 mM (inactive).
For `Cn1cnc2c(Cl)ncnc21`, the Kd was > 4 mM (inactive).
`Cn1nnc2cc(C(=O)O)ccc21` was tested, and the Kd was > 4 mM (inactive).
For `COc1ccccc1NC(=O)c1cc[n+]([O-])cc1`, the Kd was > 4 mM (inactive).
`CC1=NN(c2ccc(C)cc2)C(=O)C1` was tested, and the Kd was > 4 mM (inactive).
`O=C(c1cc2ccccc2o1)N1CCCCCC1` was tested, and the Kd was > 4 mM (inactive).
For `CC1(C)N=C2C(=N)C=CC=C2N1O`, the Kd was > 4 mM (inactive).
`CCCCN1C(=O)C2CC/C(=N/O)CC2C1=O` (stereo not given) was tested, and the Kd was > 4 mM (inactive).
For `O=S1(=O)CCC(NC(=S)Nc2ccccc2)C1` (stereo not given), the Kd was > 4 mM (inactive).
With `O=C1c2cccnc2C(=O)N1Cc1ccco1` the Kd was > 4 mM (inactive).
`O=C1CC2OCC=C3CN4CC[C@]56c7ccccc7N1C5[C@H]2[C@H]3CC46` (stereo not given in full) was tested, and the Kd was > 4 mM (inactive).
`CCOC(=O)c1c[nH]c2c(F)cccc2c1=O` was tested, and the Kd was > 4 mM (inactive).
With `Cc1ccc(S(=O)(=O)CC(=O)N(C)C)cc1` the Kd was > 4 mM (inactive).
`Cc1cc(C)c2ccc[n+]([O-])c2c1O` was tested, and the Kd was > 4 mM (inactive).
In the case of `CN1CCC[C@H]1c1cccnc1`, the Kd is reported as > 4 mM (inactive).
For `Nc1cccc(C(=O)Nc2ccc(N)cc2Cl)c1`, the Kd was > 4 mM (inactive).
For `NS(=O)(=O)c1ccc(NC(=S)NC2CC2)cc1`, the Kd was > 4 mM (inactive).
For `O=C(O)c1coc2c1C(=O)CCC2`, the Kd was > 4 mM (inactive).
In the case of `CN(C)N1C(=O)c2ccccc2C1=O`, the Kd is reported as > 4 mM (inactive).
For `CCOC(=O)N1CCN(c2ncnc3c2cnn3C)CC1`, the Kd was > 4 mM (inactive).
In the case of `CC(=O)Nc1ccc(NC(=O)c2ccnn2C)cc1`, the Kd is reported as > 4 mM (inactive).
For `COCc1nn2c(N)c(C#N)cnc2c1-c1ccccc1`, the Kd was > 4 mM (inactive).
With `CNC(=S)Nc1ccc(C(=O)O)cc1` the Kd was > 4 mM (inactive).
With `O=C(O)c1cc2ccccc2o1` the Kd was > 4 mM (inactive).
In the case of `OCc1nc2ccccc2s1`, the Kd is reported as > 4 mM (inactive).
In the case of `Cn1c(=O)c2ccccc2n(Cc2ccccc2F)c1=O`, the Kd is reported as > 4 mM (inactive).
In the case of `Cc1scc(C(=O)Nc2ccon2)c1-c1ccccc1`, the Kd is reported as > 4 mM (inactive).
With `COc1ccc(C(=O)/C=C/c2ccccc2)cc1` the Kd was > 4 mM (inactive).
In the case of `COC(=O)NCc1cc2cc(Cl)ccc2[nH]1`, the Kd is reported as > 4 mM (inactive).
With `O=C(O)CCc1nc2ccccc2[nH]c1=O` the Kd was > 4 mM (inactive).
With `NCc1ccc2occc2c1` the Kd was > 4 mM (inactive).
For `CN1CCN(CC(=O)Nc2ccccc2)CC1`, the Kd was > 4 mM (inactive).
With `CC1(C)Cc2c(c(-c3ccco3)[nH]c(=O)c2C#N)CO1` the Kd was > 4 mM (inactive).
With `CN1C(=O)C2C=CC1C1C(=O)N(c3ccccc3)C(=O)C21` (stereo not given) the Kd was > 4 mM (inactive).
`COc1ccc(Cl)cc1-c1nc(-c2ccncc2)no1` was tested, and the Kd was > 4 mM (inactive).
In the case of `Cc1ccc(/C=C2/NC(=S)NC2=O)s1`, the Kd is reported as > 4 mM (inactive).
In the case of `CN1CC(=O)N=C1N`, the Kd is reported as > 4 mM (inactive).
With `CCN=Cc1c(O)n(-c2ccccc2C)c(=O)[nH]c1=O` the Kd was > 4 mM (inactive).
For `Nc1cc(=O)[nH]c(SCC(=O)Nc2nccs2)n1`, the Kd was > 4 mM (inactive).
`O=C1C2C3C=CC(C3)C2C(=O)N1c1cccnc1` (stereo not given) was tested, and the Kd was > 4 mM (inactive).
For `CC(=O)c1sc(NC(=O)C=C(C)C)nc1C`, the Kd was > 4 mM (inactive).
With `O=C(NCC1CCCCC1)c1ccco1` the Kd was > 4 mM (inactive).
For `O=C(O)CS(=O)(=O)c1ccccc1`, the Kd was > 4 mM (inactive).
`NNC(=O)c1ccccc1-n1cccc1` was tested, and the Kd was > 4 mM (inactive).
With `CC(=O)c1cccc(NC(=O)N2CCc3ccccc3C2)c1` the Kd was > 4 mM (inactive).
With `CO[C@H]1[C@@H](O)[C@@H](C)O[C@H](O[C@H]2CCC3(C)C4CCC5(C)[C@@H](C6=CC(=O)OC6)CC[C@]5(O)[C@@H]4CC[C@]3(O)C2)[C@@H]1O` (stereo not given in full) the Kd was > 4 mM (inactive).
`CC(C)(C)C(=O)Nc1nnc(SCC(N)=O)s1` was tested, and the Kd was > 4 mM (inactive).
For `NC(=O)CSc1nnc2ccc(-c3ccccn3)nn12`, the Kd was > 4 mM (inactive).
For `O=C1NC(=S)N/C1=C/c1ccsc1`, the Kd was > 4 mM (inactive).
With `O=C(Nc1nnc(-c2ccco2)o1)C1=COCCO1` the Kd was > 4 mM (inactive).
In the case of `CC(=O)N=c1cccc(NC(C)=O)n1O`, the Kd is reported as > 4 mM (inactive).
In the case of `O=C1CNC(=O)N1c1cccc(Cl)c1`, the Kd is reported as > 4 mM (inactive).
For `C=C1CCC2C(CC2(C)C)C(=C)CC/C1=N/O` (stereo not given), the Kd was > 4 mM (inactive).
`Cc1cc(C(=O)NCc2ccco2)cs1` was tested, and the Kd was > 4 mM (inactive).
For `CNC(=O)Nc1cccc(C(F)(F)F)c1`, the Kd was > 4 mM (inactive).
With `O=C(O)Cn1c(=O)sc2ccccc21` the Kd was > 4 mM (inactive).
`Cc1ccc(NC(=O)c2ccccc2)s1` was tested, and the Kd was > 4 mM (inactive).
`CCOC(=O)CN1C(=O)c2ccccc2C1=O` was tested, and the Kd was > 4 mM (inactive).
With `Cc1nc(-c2cc(C(=O)O)no2)cs1` the Kd was > 4 mM (inactive).
`OC1CCNC2CCCCC12` (stereo not given) was tested, and the Kd was > 4 mM (inactive).
For `O=c1[nH]cc(CN2CCOCC2)c(=O)[nH]1`, the Kd was > 4 mM (inactive).
With `C/C=C(\C)c1nnc(NC(=O)C(C)C)s1` the Kd was > 4 mM (inactive).
With `CC(C)c1ccc(NC(=O)C(N)=O)cc1` the Kd was > 4 mM (inactive).
With `CSc1ccccc1NC(=O)c1ccc(C)o1` the Kd was > 4 mM (inactive).
`O=C(O)c1ccc(-c2cccs2)s1` was tested, and the Kd was > 4 mM (inactive).
In the case of `CN(C)CC(O)C1CCOC(C)(C)C1` (stereo not given), the Kd is reported as > 4 mM (inactive).
`CC(C)(OC(=O)c1ccccc1)[C@@H]1Cc2cc3ccc(=O)oc3cc2O1` was tested, and the Kd was > 4 mM (inactive).
`O=c1cc(-c2ccccc2)oc2c(O)c(O)ccc12` was tested, and the Kd was > 4 mM (inactive).
For `Nc1cccc2nonc12`, the Kd was > 4 mM (inactive).
With `CC(=O)Oc1c(-c2ccccc2)oc2c(CC=C(C)C)c3c(c(OC(C)=O)c2c1=O)C=CC(C)(C)O3` the Kd was > 4 mM (inactive).
With `CN1CCCn2c1nc1c2c(=O)[nH]c(=O)n1C` the Kd was > 4 mM (inactive).
In the case of `Cc1cc(=O)n2[nH]c(COc3ccccc3)nc2n1`, the Kd is reported as > 4 mM (inactive).
`COCC(=O)OCn1nnc2ccccc2c1=O` was tested, and the Kd was > 4 mM (inactive).
With `CCc1c(C)[nH]c(=S)c(C(N)=O)c1C` the Kd was > 4 mM (inactive).
In the case of `Cn1cnc2c(cnn2-c2ccccc2)c1=O`, the Kd is reported as > 4 mM (inactive).
With `O=S1(=O)CCC(NC(=S)N2CCOCC2)C1` (stereo not given) the Kd was > 4 mM (inactive).
In the case of `O=C1CCNc2cc3ccccc3cc21`, the Kd is reported as > 4 mM (inactive).
In the case of `COc1cccc(-c2nc3ccc(O)cc3c(=O)o2)c1`, the Kd is reported as > 4 mM (inactive).
With `NC1=NN(c2ccccc2)C(=O)C1` the Kd was > 4 mM (inactive).
With `O=C(NC1=NCCS1)c1ccc2snnc2c1` the Kd was > 4 mM (inactive).
`COc1cc2c(cc1O)CCNC2C` (stereo not given) was tested, and the Kd was > 4 mM (inactive).
`Cc1ccc(N2NC(=O)CC2=O)cc1C` was tested, and the Kd was > 4 mM (inactive).
With `C=C(C)C1CC=C(CO)CC1` (stereo not given) the Kd was > 4 mM (inactive).
For `c1ccc(SCc2nc(-c3ccccn3)no2)cc1`, the Kd was > 4 mM (inactive).
For `Cn1c(O)c(C2=NC(=S)NC2=O)c2ccccc21`, the Kd was > 4 mM (inactive).
In the case of `O=C(O)c1cnc2sc3ccccc3n2c1=O`, the Kd is reported as > 4 mM (inactive).
In the case of `O=C(Nc1cnccn1)c1cccnc1`, the Kd is reported as > 4 mM (inactive).
